{
  "source": "patent US8999389B2",
  "about": "“Bioresorbable controlled-release composition” (priority 2006, dated 2015)",
  "assay": "Intravenous bolus dosing of 2-hydroxyflutamide in dogs, plasma concentration",
  "assay_type": "in vivo, Labrador dogs",
  "conditions": "single intravenous bolus 25 mg",
  "procedure": "First, an animal study was performed with 4 sexually mature Labrador dogs, aged 1 year, under approval by the Animal Ethics Committee of University of Gothenburg.\nThe male dogs (Labrador) were first given an intravenous single bolus dose of 2-hydroxyflutamide or 25 mg (10 ml solution) per animal during 30 seconds. The composition of the intravenous solution was sterile saline 54%, sterile polyethyleneglycol 400, 46% and 6% ethanol (95%).\nAfter injection into vena jugularis, blood samples were taken at predetermined time points during 10 hours.",
  "data": [
    {"smiles": "CC(C)(O)C(=O)Nc1ccc([N+](=O)[O-])c(C(F)(F)F)c1", "note": "[2-hydroxyflutamide]", "values": [
      {"measurement": "time after which plasma concentration was below the detection limit", "value": "about 10 hrs"}
    ]}
  ]
}
